Measurements from the supplement of paper PMC10307832.

compound: CCOC(=O)CCNc1cc(N2CCc3ccccc3CC2)nc(-c2ccccn2)n1 [GSK-J4] + CCNC(=O)c1noc(-c2cc(C(C)C)c(O)cc2O)c1-c1ccc(CN2CCOCC2)cc1 [Luminespib] (partner 0.01 µM); experiment: relative viability (nuclei count vs DMSO), 5 days (fraction); higher = more cells survive; conditions: first compound 0.5 µM
In short: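 Lung cancer cell lines, seeded in 1536-well plates, were treated the following day by pin tool with a single drug or with five library-drug doses (not always all listed) in √10 steps on top of a fixed anchor-drug dose. Cells were fixed and nuclei stained in one step after 5 days, and nuclei were counted. Relative viability is the nuclei count for treated wells divided by that for vehicle wells, reported as medians of duplicate plates.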

CAL-12T was tested. Which relative viability did it give?
Its relative viability is 0.83.

Which relative viability does the source give for HCC-15 here?
Its relative viability is 0.232.

For HOP-62, which relative viability is on record?
The relative viability was 0.877.

With NCI-H460 as the cell line, how does the relative viability read?
The relative viability was 0.0274.

LU99A was tested. Which relative viability did it give?
Its relative viability is 0.201.

NCI-H2085 was tested. Which relative viability did it give?
Its relative viability is 0.477.

For A-427, which relative viability is on record?
The relative viability was 0.866.

With NCI-H520 as the cell line, how does the relative viability read?
The relative viability was 0.215.

For NCI-H838, which relative viability is on record?
Its relative viability is 0.299.

How did the relative viability turn out when NCI-H596 was run?
The relative viability was 0.981.

With NCI-H3122 as the cell line, how does the relative viability read?
Its relative viability is 0.0789.

Which relative viability does the source give for BEN here?
Its relative viability is 0.297.

How did the relative viability turn out when NCI-H1395 was run?
The relative viability was 0.529.

How did the relative viability turn out when 201T was run?
Its relative viability is 1.05.

NCI-H1993 was tested. Which relative viability did it give?
The relative viability was 0.885.

For NCI-H1355, which relative viability is on record?
The relative viability was 0.691.

NCI-H2405 was tested. Which relative viability did it give?
The relative viability was 0.774.

With NCI-H1437 as the cell line, how does the relative viability read?
The relative viability was 1.05.

How did the relative viability turn out when NCI-H661 was run?
Its relative viability is 0.911.

How did the relative viability turn out when COR-L 105 was run?
The relative viability was 0.624.

For H3255, which relative viability is on record?
The relative viability was 0.752.

How did the relative viability turn out when NCI-H2347 was run?
Its relative viability is 0.529.

How did the relative viability turn out when NCI-H1975 was run?
Its relative viability is 0.261.

NCI-H441 was tested. Which relative viability did it give?
The relative viability was 0.303.

How did the relative viability turn out when NCI-H1650 was run?
The relative viability was 0.17.

How did the relative viability turn out when NCI-H1915 was run?
The relative viability was 0.824.

Which relative viability does the source give for NCI-H2087 here?
Its relative viability is 0.172.

With NCI-H1793 as the cell line, how does the relative viability read?
The relative viability was 0.261.

Which relative viability does the source give for RERF-LC-KJ here?
Its relative viability is 1.23.

For EMC-BAC-2, which relative viability is on record?
Its relative viability is 1.21.

Which relative viability does the source give for LCLC-97TM1 here?
The relative viability was 0.725.

Which relative viability does the source give for NCI-H1651 here?
The relative viability was 0.703.

For NCI-H2170, which relative viability is on record?
The relative viability was 0.576.

same assay, conditions: first compound 1.581 µM

CAL-12T was tested. Which relative viability did it give?
Its relative viability is 0.549.

For HOP-62, which relative viability is on record?
The relative viability was 0.937.

How did the relative viability turn out when NCI-H460 was run?
The relative viability was 0.0313.

How did the relative viability turn out when LU99A was run?
Its relative viability is 0.267.

For NCI-H2085, which relative viability is on record?
The relative viability was 0.394.

Which relative viability does the source give for NCI-H520 here?
The relative viability was 0.242.

For NCI-H838, which relative viability is on record?
The relative viability was 0.335.

Which relative viability does the source give for NCI-H596 here?
The relative viability was 0.969.

NCI-H3122 was tested. Which relative viability did it give?
Its relative viability is 0.067.

How did the relative viability turn out when BEN was run?
Its relative viability is 0.373.

How did the relative viability turn out when NCI-H1395 was run?
The relative viability was 0.621.

For 201T, which relative viability is on record?
Its relative viability is 1.1.

For NCI-H1993, which relative viability is on record?
The relative viability was 0.803.

Which relative viability does the source give for NCI-H1355 here?
The relative viability was 0.701.

With NCI-H2405 as the cell line, how does the relative viability read?
Its relative viability is 0.674.

With NCI-H1437 as the cell line, how does the relative viability read?
Its relative viability is 1.1.

For NCI-H661, which relative viability is on record?
Its relative viability is 0.902.

How did the relative viability turn out when COR-L 105 was run?
Its relative viability is 0.58.

With H3255 as the cell line, how does the relative viability read?
The relative viability was 0.726.

With NCI-H2347 as the cell line, how does the relative viability read?
The relative viability was 0.405.

NCI-H1975 was tested. Which relative viability did it give?
Its relative viability is 0.202.

NCI-H441 was tested. Which relative viability did it give?
The relative viability was 0.298.

With NCI-H1650 as the cell line, how does the relative viability read?
The relative viability was 0.222.

With NCI-H1915 as the cell line, how does the relative viability read?
The relative viability was 0.791.

How did the relative viability turn out when NCI-H1793 was run?
The relative viability was 0.192.

How did the relative viability turn out when RERF-LC-KJ was run?
The relative viability was 1.17.

For EMC-BAC-2, which relative viability is on record?
The relative viability was 1.09.

For LCLC-97TM1, which relative viability is on record?
Its relative viability is 0.722.

With NCI-H1651 as the cell line, how does the relative viability read?
The relative viability was 0.728.

NCI-H2170 was tested. Which relative viability did it give?
The relative viability was 0.668.

same assay, conditions: first compound 5 µM

With CAL-12T as the cell line, how does the relative viability read?
Its relative viability is 0.244.

Which relative viability does the source give for HCC-15 here?
Its relative viability is 0.304.

How did the relative viability turn out when HOP-62 was run?
Its relative viability is 0.917.

For NCI-H460, which relative viability is on record?
The relative viability was 0.03.

How did the relative viability turn out when NCI-H2085 was run?
Its relative viability is 0.419.

For A-427, which relative viability is on record?
Its relative viability is 0.64.

NCI-H520 was tested. Which relative viability did it give?
Its relative viability is 0.207.

With NCI-H596 as the cell line, how does the relative viability read?
The relative viability was 1.23.

Which relative viability does the source give for NCI-H3122 here?
Its relative viability is 0.119.

How did the relative viability turn out when NCI-H1395 was run?
The relative viability was 0.62.

Which relative viability does the source give for 201T here?
The relative viability was 1.12.

Which relative viability does the source give for NCI-H1993 here?
Its relative viability is 0.779.

NCI-H1355 was tested. Which relative viability did it give?
Its relative viability is 0.77.

For NCI-H1437, which relative viability is on record?
The relative viability was 1.1.

For NCI-H661, which relative viability is on record?
The relative viability was 0.929.

Which relative viability does the source give for COR-L 105 here?
The relative viability was 0.702.
